Data published in patent US20040024024A1, “Aromatic sulfone hydroxamates and their use as protease inhibitors” (priority 2001, published 2004).
Counter-ions that a name gives are not always drawn.

Key:
Assay in all cases: In vitro MMP inhibition, IC50 determination (fluorogenic substrate I)
Assay type in all cases: biochemical
Human recombinant MMP-9 = target: T1, Human recombinant MMP-9 (Homo sapiens, UniProt P14780)
T1 construct: made in house; host or cells: MMP-9-transfected HT1080 cells (spent media)
Protocol: (§1) Several hydroxamates and salts thereof were analyzed in in vitro assays to determine their ability to inhibit the MMP cleavage of peptide substrates. Inhibition (Ki) and IC50 constants were calculated from the assayed hydroxamate-MMP interactions.
(§2) Human recombinant MMP-1, MMP-2, MMP-9, MMP-13, and MMP-14 were used in this assay. All enzymes were prepared in Assignee's laboratories following usual laboratory procedures. Protocols for the preparation and use of these enzymes are available in the scientific literature. See, e.g., Enzyme Nomenclature (Academic Press, San Diego, Calif., 1992) (and the citations therein). See also, Frije et al., J. Biol. Chem., 26(24), 16766-73 (1994).
The MMP-9 proenzyme was purified by gelatin Sepharose chromatography from spent media of MMP-9-transfected HT1080 cells provided by Dr. Howard Welgus of Washington University (St. Louis, Mo.).
(§3) All MMPs were activated using 4-aminophenylmercuric acetate (“APMA”, Sigma Chemical, St. Louis, Mo.) or trypsin. MMP-9 also was activated using human recombinant MMP-3 (purified in Assignee's laboratory following standard cloning and purification techniques).
(§4) Two fluorogenic, methoxycoumarin-containing polypeptide substrates were used in the MMP inhibition assays:
(§5) MCA-ProLeuGlyLeuDpaAlaArgNH2 (I)
(§6) Here, “Dpa” is 3-(2,4-dinitrophenyl)-L-2,3-diaminopropionyl group, and “MCA” is 7-methoxycoumarin-4-yl acetyl. Substrate (I) was purchased from Baychem (Redwood City, Calif.), and substrate II was prepared Assignee's laboratory. Substrate I was used in the IC50 determination assays, while substrate II was used in the Ki determination assays. In the absence of MMP inhibitory activity, either substrate is cleaved at the Gly-Leu peptide bond. This cleavage separates the highly fluorogenic peptide from the 2,4-dinitrophenyl quencher, thus resulting in increase of fluorescent intensity.
(§7) The stock solutions of the assayed hydroxamates (or salts thereof) were prepared in 1% dimethyl sulfoxide (DMSO). These stock solutions were diluted in Buffer A (100 mM Tris-HCl, 100 mM NaCl, 10 mM CaCl2, 0.05% polyoxyethylene 23 lauryl ether, pH 7.5) to obtain solutions with different hydroxamate concentrations, i.e., assay solutions with different concentrations of the assayed MMP inhibitory compound. The experiment controls contained the same amount of Buffer A/DMSO as the assayed sample, but contained no hydroxamate (or salt thereof).
(§8) The assays from which the IC50 determinations were made were performed as follows. The MMPs were activated with either trypsin or APMA (4-aminophenylmercuric acetate, Sigma Chemical, St. Louis, Mo.). The assayed hydroxamate samples were, incubated in Microfluorrm White Plates (Dynatech, Chantilly, VA) and analyzed on a Perkin Elmer L550 plate reader (Norwalk, Conn.). The excitation wavelength was 328 nm, and the emission wavelength—415 nm. All samples (assayed hydroxamates and controls) were incubated in separate plates at room temperature in the presence of 4 μM of MMP substrate (I). As stated in the previous paragraph, samples containing varying concentrations of the same assayed hydroxamate were prepared. Inhibition was measured as a reduction in fluorescent intensity as a function of MMP inhibitor concentration.

Human recombinant MMP-14 = target: T2, Human recombinant MMP-14 (Homo sapiens, UniProt P50281)
T2 construct: The catalytic domain enzyme was expressed in E. coli inclusion bodies, solubilized in urea; made in house
Protocol: as §1, §2
The MMP-14 full length cDNA was provided by Dr. Gregory Goldberg of Washington University (St. Louis, Mo.). The catalytic domain enzyme was expressed in E. coli inclusion bodies, solubilized in urea, purified on a preparative […] reverse phase HPLC column, and then refolded in the presence of zinc acetate and purified for use.
as §3, §4, §5, §6, §7, §8

Human recombinant MMP-13 = target: T3, Human recombinant MMP-13 (Homo sapiens, UniProt P45452)
T3 construct: made in house; host or cells: baculovirus / insect cells
In short: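 Fluorescence at 415 nm (excitation 328 nm) reports Gly-Leu cleavage of 4 μM quenched methoxycoumarin peptide substrate I. Human recombinant MMP-13, activated by trypsin or APMA, was incubated at room temperature with varied inhibitor concentrations in pH 7.5 Tris/NaCl/CaCl2 buffer; IC50 derived from reduced fluorescence.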

Human recombinant MMP-2 = target: T4, Human recombinant MMP-2 (Homo sapiens, UniProt P08253)
T4 construct: made in house; host or cells: MMP-2-transfected p2AHT2 cells
T4 sequence (P08253 110-660): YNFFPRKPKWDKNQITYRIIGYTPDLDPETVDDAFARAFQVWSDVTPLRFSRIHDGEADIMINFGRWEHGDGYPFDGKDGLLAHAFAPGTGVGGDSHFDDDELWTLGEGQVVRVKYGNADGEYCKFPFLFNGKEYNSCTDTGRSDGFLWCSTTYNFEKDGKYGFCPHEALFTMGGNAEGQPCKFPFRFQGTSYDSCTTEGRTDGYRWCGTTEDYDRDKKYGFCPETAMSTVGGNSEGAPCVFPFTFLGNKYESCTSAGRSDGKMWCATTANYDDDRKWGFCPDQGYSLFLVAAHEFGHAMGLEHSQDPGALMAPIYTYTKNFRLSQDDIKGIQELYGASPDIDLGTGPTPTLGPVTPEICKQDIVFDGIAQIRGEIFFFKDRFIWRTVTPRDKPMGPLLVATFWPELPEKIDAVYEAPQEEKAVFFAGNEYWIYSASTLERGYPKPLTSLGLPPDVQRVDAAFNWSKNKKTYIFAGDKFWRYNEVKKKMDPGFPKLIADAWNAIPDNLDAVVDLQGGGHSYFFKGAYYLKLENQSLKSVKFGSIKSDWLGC
In short: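 IC50 was derived from the concentration-dependent fall in fluorescence (ex 328, em 415 nm) on Gly-Leu cleavage of 4 μM MCA/Dpa-quenched substrate I. Assays ran at room temperature in pH 7.5 Tris/NaCl/CaCl2/Brij buffer with MMP-2 activated by trypsin or APMA; inhibitors were diluted from 1% DMSO stocks.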

Human recombinant MMP-1 = target: T5, Human recombinant MMP-1 (Homo sapiens, UniProt P03956)
T5 construct: made in house; host or cells: MMP-1-transfected HT-1080 cells (spent media)
T5 sequence (P03956 100-469): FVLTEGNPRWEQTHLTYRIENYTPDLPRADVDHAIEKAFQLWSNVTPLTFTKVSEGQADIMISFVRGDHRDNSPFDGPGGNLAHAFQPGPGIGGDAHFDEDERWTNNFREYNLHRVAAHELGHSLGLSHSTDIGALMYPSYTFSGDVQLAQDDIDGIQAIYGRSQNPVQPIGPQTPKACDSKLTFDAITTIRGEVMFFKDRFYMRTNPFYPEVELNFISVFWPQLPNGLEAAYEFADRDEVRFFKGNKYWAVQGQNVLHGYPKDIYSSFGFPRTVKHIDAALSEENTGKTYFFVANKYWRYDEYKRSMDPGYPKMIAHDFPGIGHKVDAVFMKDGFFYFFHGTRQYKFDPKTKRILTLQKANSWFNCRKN
Protocol: as §1, §2
The MMP-1 proenzyme was purified from the spent media of MMP-1-transfected HT-1080 cells provided by Dr. Harold Welgus of Washington University (St. Louis, Mo.). The protein was purified on a zinc chelating column.
as §3, §4, §5, §6, §7, §8

[1] = substrate (I) 4 μM, room temperature, values not in parenthesis

T1 sequence (P14780 107-707 limits assumed): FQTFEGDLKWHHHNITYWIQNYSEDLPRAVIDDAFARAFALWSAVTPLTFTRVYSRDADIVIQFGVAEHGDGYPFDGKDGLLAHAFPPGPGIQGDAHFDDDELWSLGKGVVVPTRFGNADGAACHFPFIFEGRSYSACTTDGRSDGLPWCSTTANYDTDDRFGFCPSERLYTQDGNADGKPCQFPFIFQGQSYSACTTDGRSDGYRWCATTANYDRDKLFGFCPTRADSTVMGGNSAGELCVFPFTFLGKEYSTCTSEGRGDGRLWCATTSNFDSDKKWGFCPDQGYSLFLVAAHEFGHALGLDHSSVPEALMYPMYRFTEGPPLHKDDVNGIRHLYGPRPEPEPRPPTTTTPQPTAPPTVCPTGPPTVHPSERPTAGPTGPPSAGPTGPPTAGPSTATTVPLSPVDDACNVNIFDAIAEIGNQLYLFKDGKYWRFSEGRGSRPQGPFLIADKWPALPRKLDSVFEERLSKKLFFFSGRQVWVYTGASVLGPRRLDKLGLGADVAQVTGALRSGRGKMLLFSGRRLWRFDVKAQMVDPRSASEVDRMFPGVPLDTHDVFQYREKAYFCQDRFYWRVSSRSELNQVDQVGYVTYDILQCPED

| SMILES | IC50 (Human recombinant MMP-9; [1]) | IC50 (Human recombinant MMP-14; [1]) | IC50 (Human recombinant MMP-13; [1]) | IC50 (Human recombinant MMP-2; [1]) | IC50 (Human recombinant MMP-1; [1]) | IC50 (Human recombinant MMP-9; value outside parenthesis) | IC50 (Human recombinant MMP-14; value outside parenthesis) | IC50 (Human recombinant MMP-13; value outside parenthesis) | IC50 (Human recombinant MMP-2; value outside parenthesis) | IC50 (Human recombinant MMP-1; value outside parenthesis) |
| --- | --- | --- | --- | --- | --- | --- | --- | --- | --- | --- |
| COc1ccc(-c2coc(CCCOc3ccc(S(=O)(=O)C4(C(=O)NO)CCOCC4)cc3)n2)cc1 [Example 30, tetrahydro-N-hydroxy-4-[[4-[3-[4-(4-methoxyphenyl)-2-oxazolyl]propoxy]phenyl]sulfonyl]-2Hpyran-4-carboxamide] | 809 nM | > 10000 nM | 1.3 nM | 22.6 nM | > 10000 nM |  |  |  |  |  |
| Cc1ccccc1-c1nnc(CCCOc2ccc(S(=O)(=O)C3(C(=O)NO)CCOCC3)cc2)o1 [Example 32, tetrahydro-N-hydroxy-4-[[4-[3-[5-(2-methylphenyl)-1,3,4-oxadiazol-2-yl]propoxy]phenyl]sulfonyl]-2H-pyran-4-carboxamide] | 4080 nM | > 10000 nM | 0.8 nM | 218 nM | > 10000 nM |  |  |  |  |  |
| O=C(NO)C1(S(=O)(=O)c2ccc(OCCCSc3nc4ccccc4o3)cc2)CCOCC1 [Example 33, 4-[[4-[3-(2-benzoxazolylthio)propoxy]phenyl]sulfonyl]tetrahydro-N-N-hydroxy-2H-pyran-4-carboxamide] | 7.9 nM | 4940 nM | 1 nM | 16 nM | > 10000 nM |  |  |  |  |  |
| O=C(OCCCCOc1ccc(S(=O)(=O)C2(C(=O)NO)CCOCC2)cc1)N1CCc2ccccc2C1 [Example 34] | > 10000 nM | > 10000 nM | 3 nM | 36.6 nM | 429 nM |  |  |  |  |  |
| O=C1c2ccccc2C(=O)N1CCCCc1ccc(S(=O)(=O)C2(C(=O)NO)CCOCC2)cc1 [Example 35] | > 10000 nM | > 10000 nM | 3 nM | 600 nM | > 10000 nM |  |  |  |  |  |
| O=C(NO)C1(S(=O)(=O)c2ccc(OCCCc3nc4ccccc4o3)cc2)CCOCC1 [Example 37, 4-[[4-[3-(2-benzoxazolyl)propoxy]phenyl]sulfonyl]tetrahydro-N-hydroxy-2H-pyran-4-carboxamide] | 449 nM | > 10000 nM | 1.4 nM | 30.3 nM | 8710 nM |  |  |  |  |  |
| COCCN1CCC(C(=O)NO)(S(=O)(=O)c2ccc(OCCCSc3nc4ccccc4o3)cc2)CC1 [Example 43, 4-([4-[3-(1,3-benzoxazol-2-ylthio)propoxy]phenyl]sulfonyl)-N-hydroxy-1-(2-methoxyethyl)piperidine-4-carboxamide Hydrochloride] | 1 nM | 2080 nM | 1 nM | 4.8 nM | > 10000 nM |  |  |  |  |  |
| COCCN1CCC(C(=O)NO)(S(=O)(=O)c2ccc(OCCCc3cccc(-c4ccccc4)c3)cc2)CC1 [Example 44] | 154 nM | 4980 nM | 1.4 nM | 133 nM | > 10000 nM |  |  |  |  |  |
| O=C(NO)C1(S(=O)(=O)c2ccc(OCCc3cccc(-c4ccccc4)c3)cc2)CCOCC1 [Example 99] |  |  |  |  |  | 3440 nM | > 10000 nM | 0.4 nM | 246 nM | > 10000 nM |
| COCCN1CCC(C(=O)NO)(S(=O)(=O)c2ccc(OCCCn3nnc(-c4ccc(C(F)(F)F)cc4)n3)cc2)CC1 [Example 103] |  |  |  |  |  | 1130 nM | > 10000 nM | 0.4 nM | 85.8 nM | > 10000 nM |
| CC(C)C[C@@H]1C(=O)N(CCCOc2ccc(S(=O)(=O)C3(C(=O)NO)CCOCC3)cc2)C(=O)N1c1ccccc1 [Example 105] |  |  |  |  |  | 7690 nM | > 10000 nM | 9.7 nM | 1370 nM | > 10000 nM |
| CC[C@@H]1C(=O)N(CCCOc2ccc(S(=O)(=O)C3(C(=O)NO)CCOCC3)cc2)C(=O)N1c1ccccc1 [Example 106] |  |  |  |  |  | > 10000 nM | > 10000 nM | 3.5 nM | 1050 nM | > 10000 nM |
| Cc1cc(-c2cccc(CCOc3ccc(S(=O)(=O)C4(C(=O)NO)CCOCC4)cc3)c2)ccc1F [Example 120] |  |  |  |  |  | > 10000 nM | > 10000 nM | 5.8 nM | 1170 nM | > 10000 nM |
| O=C(NO)C1(S(=O)(=O)c2ccc(OCCc3cccc(-c4ccc(F)c(F)c4)c3)cc2)CCOCC1 [Example 122] |  |  |  |  |  | 7670 nM | > 10000 nM | 1.9 nM | 760 nM | > 10000 nM |
| COCCN1CCC(C(=O)NO)(S(=O)(=O)c2ccc(OCCCn3nnc(-c4ccc(SC)cc4)n3)cc2)CC1 [Example 130] |  |  |  |  |  | 50.2 nM | 500 nM | 0.3 nM | 4.7 nM | 4610 nM |
| CC(C)[C@H]1C(=O)N(CCCOc2ccc(S(=O)(=O)C3(C(=O)NO)CCOCC3)cc2)C(=O)N1c1ccccc1 [Example 134] |  |  |  |  |  | > 10000 nM | > 10000 nM | 7.7 nM | 2380 nM | > 10000 nM |
| CCN1CCC(C(=O)NO)(S(=O)(=O)c2ccc(OCCCc3cccc(-c4ccc(F)cc4)c3)cc2)CC1 [Example 138] |  |  |  |  |  | 1900 nM | > 10000 nM | 2.1 nM | 247 nM | > 10000 nM |
| O=C1CN(c2ccc(OC(F)(F)F)cc2)C(=O)N1CCCOc1ccc(S(=O)(=O)C2(C(=O)NO)CCOCC2)cc1 [Example 144] |  |  |  |  |  | 5990 nM | > 10000 nM | 2.5 nM | 239 nM | > 10000 nM |
